Laboratory results from patent publication US11034650B2, “Compounds useful for treating a Mannheimia haemolytica or Histophilus somni infection” (Intervet Inc., priority 2016, dated 2021).
≈ marks a conversion by molar mass, not a printed value.

What was measured:
Type in all cases: cell-based
[1] = tested on: Mannheimia haemolytica MH 6357 (M7/2, reference strain, cattle infection strain); assay: MIC, broth-microdilution (CLSI VET01-A4), strain MH 6357; details: Mannheimia haemolytica strain MH 6357, broth-microdilution; unit assumed
Method: (§1) For example, representative compounds were tested against ***, Mannheimia haemolytica and Pasteurella multocida, using the conventional broth-dilution assay.
(§2) The Minimum inhibitory concentrations (MIC) of compounds according to the invention for a number of veterinary bacterial pathogens were determined by the broth-microdilution method according to CLSI document VET01-A4.
(§3) Microdilution trays containing a doubling dilution series of the test compound were used for the tests. The MIC results were interpreted according to the CLSI documents VET01-S3. The lowest concentration of compound at which no visible growth (i.e. no turbidity) detected by the unaided eye was recorded as the MIC.

[2] = tested on: Mannheimia haemolytica MH 6374 (ATCC 33396, reference strain); assay: MIC, broth-microdilution (CLSI VET01-A4), strain MH 6374; details: Mannheimia haemolytica strain MH 6374, broth-microdilution; unit assumed
Method: as §1, §2, §3

[3] = tested on: Mannheimia haemolytica MH 10720 (154, BRD field isolate); assay: MIC, broth-microdilution (CLSI VET01-A4), strain MH 10720; details: Mannheimia haemolytica strain MH 10720, broth-microdilution; unit assumed
Method: as §1, §2, §3

[4] = tested on: Mannheimia haemolytica MH 12587 (1071, BRD field isolate, macrolide-resistance: erm+, E+); assay: MIC, broth-microdilution (CLSI VET01-A4), strain MH 12587; details: Mannheimia haemolytica strain MH 12587, broth-microdilution; unit assumed
Method: as §1, §2, §3

[5] = tested on: Mannheimia haemolytica MH 13065 (XB0446-6003.9, BRD field isolate); assay: MIC, broth-microdilution (CLSI VET01-A4), strain MH 13065; details: Mannheimia haemolytica strain MH 13065, broth-microdilution; unit assumed
Method: as §1, §2, §3

[6] = tested on: Mannheimia haemolytica MH 13093 (XB0472-6014.1, BRD field isolate); assay: MIC, broth-microdilution (CLSI VET01-A4), strain MH 13093; details: Mannheimia haemolytica strain MH 13093, broth-microdilution; unit assumed
Method: as §1, §2, §3

[7] = tested on: Pasteurella multocida PM 6267 (P 2225 (L386), reference strain, mouse infection strain); assay: MIC, broth-microdilution (CLSI VET01-A4), strain PM 6267; details: Pasteurella multocida strain PM 6267, broth-microdilution; unit assumed
Method: as §1, §2, §3

[8] = tested on: Pasteurella multocida PM 10775 (080130003051, BRD field isolate); assay: MIC, broth-microdilution (CLSI VET01-A4), strain PM 10775; details: Pasteurella multocida strain PM 10775, broth-microdilution; unit assumed
Method: as §1, §2, §3

[9] = tested on: Pasteurella multocida PM 12080 (IV102277-0093, BRD field isolate); assay: MIC, broth-microdilution (CLSI VET01-A4), strain PM 12080; details: Pasteurella multocida strain PM 12080, broth-microdilution; unit assumed
Method: as §1, §2, §3

Row | MIC PM 6267 [7] | MIC PM 10775 [8] | MIC PM 12080 [9] | Structure (SMILES) | MIC MH 6357 [1] | MIC MH 6374 [2] | MIC MH 10720 [3] | MIC MH 12587 [4] | MIC MH 13065 [5] | MIC MH 13093 [6]
1 | 0.4 mg/L (≈ 0.953 µM) | ≤ 0.1 mg/L | 0.8 mg/L (≈ 1.91 µM) | C=CCNCc1ccc(C#Cc2ccc(C(=O)N[C@H](C(=O)NO)[C@@H](C)CC)cc2)cc1 [Compound 113] | 3.1 mg/L (≈ 7.39 µM) | 0.8 mg/L (≈ 1.91 µM) | 0.4 mg/L (≈ 0.953 µM) | 3.1 mg/L (≈ 7.39 µM) | 1.6 mg/L (≈ 3.81 µM) | 3.1 mg/L (≈ 7.39 µM)
2 | ≤ 0.1 mg/L | ≤ 0.1 mg/L | ≤ 0.1 mg/L | COCCN(C)Cc1ccc(C#Cc2ccc(C(=O)N[C@H](C(=O)NO)C(C)C)cc2)cc1 [Compound 203] | 1.6 mg/L (≈ 3.66 µM) | 1.6 mg/L (≈ 3.66 µM) | 0.2 mg/L (≈ 0.457 µM) | 3.1 mg/L (≈ 7.09 µM) | 0.8 mg/L (≈ 1.83 µM) | 1.6 mg/L (≈ 3.66 µM)
3 | 1.6 mg/L (≈ 3.67 µM) | 0.4 mg/L (≈ 0.918 µM) | 3.1 mg/L (≈ 7.12 µM) | CC(C)[C@H](NC(=O)c1ccc(C#Cc2cccc(CN3CCOCC3)c2)cc1)C(=O)NO [Compound 32] | 6.3 mg/L (≈ 14.5 µM) | 6.3 mg/L (≈ 14.5 µM) | 3.1 mg/L (≈ 7.12 µM) | 12.5 mg/L (≈ 28.7 µM) | 6.3 mg/L (≈ 14.5 µM) | 6.3 mg/L (≈ 14.5 µM)
4 | ≤ 0.1 mg/L | ≤ 0.1 mg/L | 0.8 mg/L (≈ 1.61 µM) | O=C(N[C@@H](CO)C(=O)NO)c1ccc(C#Cc2ccc(CN3CCC(c4ccccc4)CC3)cc2)cc1 [Compound 80] | 1.6 mg/L (≈ 3.22 µM) | 1.6 mg/L (≈ 3.22 µM) | 0.8 mg/L (≈ 1.61 µM) | 3.1 mg/L (≈ 6.23 µM) | 1.6 mg/L (≈ 3.22 µM) | 6.3 mg/L (≈ 12.7 µM)
5 | 0.8 mg/L (≈ 1.6 µM) | ≤ 0.1 mg/L | 1.6 mg/L (≈ 3.2 µM) | CC[C@H](C)[C@H](NC(=O)c1ccc(C#Cc2ccc(CNCc3ccc(OC)cc3)cc2)cc1)C(=O)NO [Compound 129] | 1.6 mg/L (≈ 3.2 µM) | 1.6 mg/L (≈ 3.2 µM) | 0.4 mg/L (≈ 0.801 µM) | 3.1 mg/L (≈ 6.2 µM) | 1.6 mg/L (≈ 3.2 µM) | 3.1 mg/L (≈ 6.2 µM)
6 | ≤ 0.1 mg/L | ≤ 0.1 mg/L | ≤ 0.1 mg/L | CC[C@H](C)[C@H](NC(=O)c1ccc(C#Cc2ccc(CN3CCOCC3)cc2)cc1)C(=O)NO [Compound 119] | 1.6 mg/L (≈ 3.56 µM) | 1.6 mg/L (≈ 3.56 µM) | 0.4 mg/L (≈ 0.89 µM) | 3.1 mg/L (≈ 6.9 µM) | 1.6 mg/L (≈ 3.56 µM) | 3.1 mg/L (≈ 6.9 µM)
7 | 0.4 mg/L (≈ 0.782 µM) | ≤ 0.1 mg/L | 0.8 mg/L (≈ 1.56 µM) | CC(C)[C@H](NC(=O)c1ccc(C#Cc2ccc(CN3CCN(c4ccccn4)CC3)cc2)cc1)C(=O)NO [Compound 101] | 3.1 mg/L (≈ 6.06 µM) | 3.1 mg/L (≈ 6.06 µM) | 0.8 mg/L (≈ 1.56 µM) | 12.5 mg/L (≈ 24.4 µM) | 3.1 mg/L (≈ 6.06 µM) | 3.1 mg/L (≈ 6.06 µM)
8 | 0.8 mg/L (≈ 1.64 µM) | ≤ 0.1 mg/L | 3.1 mg/L (≈ 6.37 µM) | CN(C)c1ccc(CNCc2ccc(C#Cc3ccc(C(=O)N[C@@H](CO)C(=O)NO)cc3)cc2)cc1 [Compound 134] | 25 mg/L (≈ 51.4 µM) | 6.3 mg/L (≈ 12.9 µM) | 6.3 mg/L (≈ 12.9 µM) | 12.5 mg/L (≈ 25.7 µM) | 12.5 mg/L (≈ 25.7 µM) | 25 mg/L (≈ 51.4 µM)
9 | 0.4 mg/L (≈ 0.782 µM) | ≤ 0.1 mg/L | 1.6 mg/L (≈ 3.13 µM) | O=C(N[C@@H](CO)C(=O)NO)c1ccc(C#Cc2ccc(CNCc3ccc(C(F)(F)F)cc3)cc2)cc1 [Compound 89] | 6.3 mg/L (≈ 12.3 µM) | 3.1 mg/L (≈ 6.06 µM) | 1.6 mg/L (≈ 3.13 µM) | 12.5 mg/L (≈ 24.4 µM) | 6.3 mg/L (≈ 12.3 µM) | 6.3 mg/L (≈ 12.3 µM)
10 | 0.4 mg/L (≈ 0.785 µM) | ≤ 0.1 mg/L | 0.8 mg/L (≈ 1.57 µM) | CC(C)[C@H](NC(=O)c1ccc(C#Cc2ccc(CN3CCC(c4ccccc4)CC3)cc2)cc1)C(=O)NO [Compound 100] | 3.1 mg/L (≈ 6.08 µM) | 6.3 mg/L (≈ 12.4 µM) | 0.8 mg/L (≈ 1.57 µM) | 12.5 mg/L (≈ 24.5 µM) | 3.1 mg/L (≈ 6.08 µM) | 6.3 mg/L (≈ 12.4 µM)
11 | ≤ 0.1 mg/L | ≤ 0.1 mg/L | 0.2 mg/L (≈ 0.414 µM) | CC(C)[C@H](NC(=O)c1ccc(C#Cc2ccc(CN3CCS(=O)(=O)CC3)cc2)cc1)C(=O)NO [Compound 99] | 3.1 mg/L (≈ 6.41 µM) | 6.3 mg/L (≈ 13 µM) | 0.8 mg/L (≈ 1.65 µM) | 12.5 mg/L (≈ 25.8 µM) | 6.3 mg/L (≈ 13 µM) | 6.3 mg/L (≈ 13 µM)
12 | ≤ 0.1 mg/L | ≤ 0.1 mg/L | 0.2 mg/L (≈ 0.438 µM) | CC(C)[C@H](NC(=O)c1ccc(C#Cc2ccc(CNCc3ccncc3)cc2)cc1)C(=O)NO [Compound 110] | 1.6 mg/L (≈ 3.5 µM) | 0.4 mg/L (≈ 0.876 µM) | ≤ 0.1 mg/L | 0.8 mg/L (≈ 1.75 µM) | 0.4 mg/L (≈ 0.876 µM) | 0.4 mg/L (≈ 0.876 µM)
